In data set [1] the test system is HCV genotype 1b luciferase reporter replicon. Put plainly: microbe, parasite or virus in culture. The conditions noted are these: Hepatitis C virus, HuH-7-Luc/Neo-ET, 72 h, read-out: HCV Replicon EC50/EC95: EC50. In kind it is cell-based.
Data set [2] in a line: Cytotoxicity by XTT staining in replicon cells. The conditions noted are these: human. Here is the method: (§1) The plates were cultured for 24 hours prior to the addition of compounds. Six serial one half log dilutions of the test articles (high test concentration of 100.0 μM or high test concentration of 1.0 μM) and human interferon-alpha2b (high test 10.0 U/ml) were prepared in cell culture medium and added to the cultured cells in triplicate wells for each dilution. Six wells in the test plates received medium alone as an untreated control. Following 72 hours of culture in the presence of compound, one of the plates was used for the determination of cytotoxicity by staining with XTT and the other for antiviral efficacy by determination of luciferase reporter activity. Cytotoxicity and efficacy data were collected and imported into a customized Excel workbook for determination of the TC50 and EC50 values. […] The y-axis is the percent of virus control and the x-axis is the concentration of drug in μM. […] The y-axis is the percent of virus control and the x-axis is the concentration of drug in M.

The test system of data set [3] is HCV genotype 1b luciferase reporter replicon. Put plainly: microbe, parasite or virus in culture. In kind it is cell-based. Here is the method: as §1
Data set [4] relates to micro-patterned human hepatocyte co-cultures. Put plainly: Human Hepatocyte Co-Cultures (HepatoPac): cytotoxicity and hepatocyte health. In kind it is cell-based. The conditions noted are these: for IC50: Homo sapiens, Hepatocyte. Here is the method:
Cytotoxicity and hepatocyte health were assessed in triplicate by measuring ALT leakage, urea production, albumin secretion and cellular ATP contents in micro-patterned human hepatocyte co-cultures (HepatoPac®, Hepregen Corporation) prepared by seeding cryopreserved human hepatocytes (single donor) and 3T3 J2 mouse fibroblasts in microtiter plates according to procedures established by Hepregen. Culture media was replaced with fresh media containing TA, test article, (0, 1, 10 or 30 μM) every 2 or 3 days through day 16. […] Cellular ATP levels were measured on days 9 and 21. ATP signals in stromal-only control cultures (murine 3T3 fibroblasts) were subtracted from those of human HepatoPac co-cultures to obtain hepatocyte-specific effects. See, Table 4, 5 and 6 below.

Where [5] appears, read: Hepatitis C virus; Huh-7 luc/neo ET cells, 72 hours, luciferase; read-out: HCV Replicon EC50/EC95: EC95.
Setting [6] is: Hepatitis C virus, parent nucleosides; read-out: EC50 in a replicon assay.

Read-outs that look alike come from different tables or passages of the source.

On to `CN(c1nc(N)nc2c1ncn2[C@@H]1O[C@H](CO)[C@@H](O)[C@@]1(C)F)C1CC1` [Compound 8, (2R,3R,4R,5R)-5-(2-Amino-6-(N-methyl-cyclopropylamino)-9H-purin-9-yl)-4-fluoro-2-(hydroxymethyl)-4-methyltetrahydrofuran-3-ol], for which the EC50 in data set [1] worked out at 5.56 µM. Also, in data set [2], the cytotoxic concentration (CC50) at 72 h is above 100 µM.
With `C#C[C@@]1(F)[C@H](O)[C@@H](CO)O[C@H]1n1cnc2c(N(C)C3CC3)nc(N)nc21` [Compound 43], in data set [1], the EC50 turned out to be 6.43 µM. In addition, the EC95 in data set [3] (setting [5]) is 24.7 µM. The CC50 at 72 h in data set [2] turned out to be 21.6 µM.
With `CNc1nc(NC(=O)C(C)C)nc2c1ncn2[C@@H]1O[C@H](CO)[C@@H](O)[C@@]1(C)F` [Compound 15, (2R,3R,4R,5R)-5-(2-isobutyramido-6-methylamino-9H-purin-9-yl)-4-fluoro-2-(hydroxymethyl)-4-methyltetrahydrofuran-3-ol], the EC50 in data set [1] is above 100 µM. Further, in data set [2], the CC50 at 72 h is above 100 µM.
Take `C#C[C@@]1(F)[C@H](O)[C@@H](CO)O[C@H]1n1cnc2c(NC)nc(N)nc21` [Compound 42]: the EC50 in data set [1] came out at 4.18 µM. Besides, the EC95 in data set [3] (setting [5]) was 20.4 µM. Further, in data set [2], the CC50 at 72 h was above 100 µM.
For the compound `CNc1nc(N)nc2c1ncn2[C@@H]1OC(COP(=O)(N[C@@H](C)C(=O)OC(C)C)Oc2ccccc2)[C@@H](O)[C@@]1(C)F` (mixture of isomers) [Compound 5, isopropyl ((((R,S)-(2R,3R,4R,5R)-5-(2-amino-6-(methylamino)-9H-purin-9-yl)-4-fluoro-3-hydroxy-4-methyltetrahydrofuran-2-yl)methoxy)-phenoxy-phosphoryl)-L-alaninate], the EC50 in data set [1] and in data set [3] (Hepatitis C virus; read-out: EC50 in a replicon assay) was 0.026 µM throughout. Besides, in data set [3] (setting [5]), the EC95 was 0.124 µM. The “Fold increase in activity compared to parent nucleoside” value in data set [3] (Table 7) is above 600. The “fold increase in activity (versus parent nucleoside)” value in data set [3] (listed as stabilized phosphate prodrug (phosphoramidate) of β-D-2′-deoxy-2′-α-fluoro-2′-β-) is given as at least 870; in data set [3] (listed as stabilized racemic phosphate prodrug (phosphoramidate) of β-D-2′-deoxy-2′-α-fluo), at least 600. Besides, the CC50 at 72 h in data set [2] was above 100 µM.
For the compound `CNc1nc(N)nc2c1ncn2[C@@H]1O[C@H](CO)[C@@H](O)[C@@]1(C)F` [Compound 4, (2R,3R,4R,5R)-5-(2-amino-6-(methylamino)-9H-purin-9-yl)-4-fluoro-2-(hydroxymethyl)-4-methyltetrahydrofuran-3-ol], the EC50 in data set [1] and in data set [3] (setting [6]) was 15.7 µM throughout. Moreover, in data set [2], the CC50 at 72 h is above 100 µM.
For `CCCN(C)c1nc(N)nc2c1ncn2[C@@H]1O[C@H](CO)[C@@H](O)[C@@]1(C)F` [Compound 19, (2R,3R,4R,5R)-5-(2-amino-6-(N-methyl-propylamino)-9H-purin-9-yl)-4-fluoro-2-(hydroxymethyl)-4-methyltetrahydrofuran-3-ol], the EC50 in data set [1] was 7.47 µM. The compound further registered a half-maximal cytotoxic concentration (CC50) at 72 h in data set [2] above 100 µM.
For the compound `CC(C)OC(=O)[C@H](C)N[P@@](=O)(OCC1O[C@@H](n2ccc(=O)[nH]c2=O)[C@](C)(F)[C@@H]1O)Oc1ccccc1` (stereo partly shown), the EC50 in data set [1] worked out at 0.052 µM. The EC95 in data set [3] (setting [5]) amounted to 0.31 µM. The compound further registered a CC50 at 72 h in data set [2] above 100 µM.
The corresponding values for `C#C[C@@]1(F)[C@H](O)[C@@H](CO)O[C@H]1n1cnc2c(N(C)C)nc(N)nc21` [Compound 41] are 0.508 µM, 25.1 µM and 21.8 µM.
As to `CCCN(C)c1nc(N)nc2c1ncn2[C@@H]1OC(COP(=O)(N[C@@H](C)C(=O)OC(C)C)Oc2ccccc2)[C@@H](O)[C@@]1(C)F` (stereo partly drawn) [Compound 20, isopropyl ((((R,S)-(2R,3R,4R,5R)-5-(2-amino-6-(N-methyl-propylamino)-9H-purin-9-yl)-4-fluoro-3-hydroxy-4-methyltetrahydrofuran-2-yl)methoxy)-phenoxy-phosphoryl)-L-alaninate], the EC50 in data set [1] was determined as 0.073 µM. Moreover, the EC95 in data set [3] (setting [5]) stood at 0.315 µM. Also, the cytotoxic concentration (CC50) at 72 h in data set [2] is above 100 µM.
`C[C@@]1(F)[C@H](O)C(CO)O[C@H]1n1cnc2c(N)nc(N)nc21` (stereo partly shown): in data set [1], the EC50 is 6.7 µM. Also, in data set [2], the CC50 at 72 h is above 100 µM.
Take `C#C[C@@]1(F)[C@H](O)C(COP(=O)(N[C@@H](C)C(=O)OC(C)C)Oc2ccccc2)O[C@H]1n1cnc2c(NC)nc(N)nc21` (stereo partly drawn) [Compound 46, isopropyl ((((R,S)-(2R,3R,4R,5R)-5-(2-amino-6-methylamino-9H-purin-9-yl)-4-fluoro-3-hydroxy-4-ethynyltetrahydrofuran-2-yl)methoxy)-phenoxy-phosphoryl)-L-alaninate]: the EC50 in data set [1] turned out to be 0.224 µM. For the same compound, the EC95 in data set [3] (setting [5]) worked out at 0.961 µM. In data set [2], this compound came in with a CC50 at 72 h above 100 µM.
The corresponding values for `CCN(C)c1nc(N)nc2c1ncn2[C@@H]1OC(COP(=O)(N[C@@H](C)C(=O)OC(C)C)Oc2ccccc2)[C@@H](O)[C@@]1(C)F` (stereo partly drawn) [Compound 18, isopropyl ((((R,S)-(2R,3R,4R,5R)-5-(2-amino-6-(N-methyl-ethylamino)-9H-purin-9-yl)-4-fluoro-3-hydroxy-4-methyltetrahydrofuran-2-yl)methoxy)-phenoxy-phosphoryl)-L-alaninate] are 0.048 µM, 0.219 µM and 90 µM.
The corresponding values for `CC(C)OC(=O)[C@H](C)N[P@@](=O)(OCC1O[C@@H](n2cnc3c(N(C)C4CC4)nc(N)nc32)[C@](C)(F)[C@@H]1O)Oc1ccccc1` (stereo partly drawn) [Compound 28, isopropyl ((((R)-(2R,3R,4R,5R)-5-(2-amino-6-(methylcyclopropanamino)-9H-purin-9-yl)-4-fluoro-3-hydroxy-4-methyltetrahydrofuran-2-yl)methoxy)-phenoxy-phosphoryl)-L-alaninate] are 0.014 µM, 0.076 µM and above 100 µM.
With `CC(C)OC(=O)[C@H](C)NP(=O)(OCC1O[C@@H](n2cnc3c(N(C)C4CC4)nc(N)nc32)[C@](C)(F)[C@@H]1O)Oc1ccccc1` (stereo partly drawn) [Compound 9, isopropyl ((((R,S)-(2R,3R,4R,5R)-5-(2-amino-6-(N-methyl-cyclopropylamino)-9H-purin-9-yl)-4-fluoro-3-hydroxy-4-methyltetrahydrofuran-2-yl)methoxy)-phenoxy-phosphoryl)-L-alaninate], the EC50 in data set [1] came out at 0.0091 µM; in data set [3] (Hepatitis C virus, read-out: EC50 in a replicon assay), 0.007 µM. In addition, in data set [3] (setting [5]), the EC95 turned out to be 0.054 µM. Further, the “Fold increase in activity compared to parent nucleoside” value in data set [3] (Table 7) is reported as above 600. Further, the CC50 at 72 h in data set [2] is above 100 µM.
`CN(C)c1nc(N)nc2c1ncn2[C@@H]1O[C@H](CO)[C@@H](O)[C@@]1(C)F` [Compound 6, (2R,3R,4R,5R)-5-(2-amino-6-(dimethylamino)-9H-purin-9-yl)-4-fluoro-2-(hydroxymethyl)-4-methyltetrahydrofuran-3-ol]: the EC50 in data set [1] and in data set [3] (setting [6]) was 10.7 µM in each case. Besides, the CC50 at 72 h in data set [2] was above 100 µM.
Regarding `COc1nc(N)nc2c1ncn2[C@@H]1O[C@H](COP(=O)(N[C@@H](C)C(=O)OCC(C)(C)C)Oc2cccc3ccccc23)[C@@H](O)[C@@]1(C)O` (stereo partly shown) [INX-189], the IC50 is 13.6 µM in data set [4] (48 h, Table 5, Day 2, read-out: Effect on Albumin Secretion, 50% Inhibitory Concentration (IC50)); above 30 µM in data set [4] (48 h, Table 6, Day 2, read-out: Effect on Albumin Secretion, 50% Inhibitory Concentration (IC50)); 3.1 µM in data set [4] (120 h, Table 5, Day 5, read-out: Effect on Albumin Secretion, 50% Inhibitory Concentration (IC50)); 4.2 µM in data set [4] (120 h, Table 6, Day 5, read-out: Effect on Albumin Secretion, 50% Inhibitory Concentration (IC50)); 3.2 µM in data set [4] (168 h, Table 5, Day 7, read-out: Effect on Albumin Secretion, 50% Inhibitory Concentration (IC50)); 1.8 µM in data set [4] (168 h, Table 6, Day 7, read-out: Effect on Albumin Secretion, 50% Inhibitory Concentration (IC50)). For the same compound, the IC50 in data set [4] (216 h, Day 9, read-out: Effect on Cellular ATP Concentrations, 50% Inhibitory Concentration (IC50)) was 8.1 µM; in data set [4] (216 h, Table 5, Day 9, read-out: Effect on Albumin Secretion, 50% Inhibitory Concentration (IC50)), 2.4 µM; in data set [4] (216 h, Table 6, Day 9, read-out: Effect on Albumin Secretion, 50% Inhibitory Concentration (IC50)) it was 1.8 µM; in data set [4] (288 h, Table 6, Day 12, read-out: Effect on Albumin Secretion, 50% Inhibitory Concentration (IC50)) it was 1.3 µM; in data set [4] (384 h, Table 6, Day 16, read-out: Effect on Albumin Secretion, 50% Inhibitory Concentration (IC50)), below 1 µM; in data set [4] (504 h, Day 21, read-out: Effect on Cellular ATP Concentrations, 50% Inhibitory Concentration (IC50)), 0.1 µM. In addition, the IC50 in data set [4] (504 h, Table 6, Day 21, read-out: Effect on Albumin Secretion, 50% Inhibitory Concentration (IC50)) is below 1 µM. In data set [4] (text b588), the “cytotoxicity to human co-cultured hepatocytes (in words)” value is on record as “highly cytotoxic”.

The record behind these values is patent US12084473B2, “β-D-2′-deoxy-2′-α-fluoro-2′-β-C-substituted-2-modified-N6-substituted purine nucleotides for HCV treatment” (Atea Pharmaceuticals, Inc., priority 2015, dated 2024).
